“And” between values parts separate entries of the source, which are not always exact repeats. Equal values may be shown once. Marks after values point to notes of the source that are not given here.
Key:
bone marrow GM-CFU [1] = assay: carboplatin-induced GM-CFU suppression in mice; assay type: in vivo; details: TER199 120mg/kg, i.p., carboplatin 90 mg/kg
Procedure: Bone marrows were harvested 24 hours after administration of the second drug.

[2] = test system: normal human bone marrow erythroid (BFU-E) progenitor cells; assay: colony formation, human bone marrow BFU-E; assay type: cell-based
Procedure: (§1) The effects are dose-dependent, usually in the range of 1.0 to 10.0 µM, and in most cases for cells stimulated by GM-CSF, G-CSF, M-CSF, Flt3/Flk-2 and Steel factor (stem cell factor/c-kit ligand). Of particular interest was the finding that TER199 enhances colony formation stimulated by combinations of cytokines. Additionally, the enhancing effect is more pronounced in human than in murine bone marrow.

interleukin-1 (IL-1) = assay: stimulation of cytokine production in bone marrow stromal cell cultures; assay type: cell-based, human; details: 100µM TER199 for one hour
Procedure: Human stromal cell cultures were established from freshly obtained human bone marrow as described by East, C.J. et al., Blood 5:1172 (1992). […] IL-1 levels were more than twice those of controls at both 24 and 48 hour time points.

[3] = test system: SKOV-3 an ovarian carcinoma; assay: standard clonogenic assay, potentiation of drug toxicity, SKOV-3; assay type: cell-based; details: test dose not given
Procedure: (§2) ; SKOV-3 an ovarian carcinoma, and VLB, a vinblastine-resistant variant of SKOV-3. Four chemotherapeutic drugs, chlorambucil, adriamycin, mitomycin C and doxorubicin were used as the toxic agents. In these assays, the cells were seeded at 300 cells/well in 2 ml of medium in 6-well plates in the presence of the compounds used in the invention as the diethyl esters. […]. After incubation for 1-2 hours to permit cells to attach, varying doses of the chemotherapeutic agents were added. At least three replicate wells were plated for each test condition and the plates were incubated for two weeks. Colonies were fixed in 95% ethanol and stained with crystal violet for colony counting. IC50 values were determined for the chemotherapeutic agent in the presence or absence of the compound used in the invention and dose modification factors were calculated by dividing the IC50 value of drug without the compound by the IC50 value of the drug with the compound.

peripheral blood cells = assay: effect on peripheral blood counts in rats; details: 90 mg/kg/day x 5, i.p.
Text: Rats were divided into two groups and each group was bled on alternating days. Mean total leukocyte, absolute lymphocyte and absolute neutrophil counts increased over the study period.

bone marrow GM-CFU [4] = details: TER199 90 mg/kg i.p. 1 hour prior to melphalan 10 mg/kg i.p.
[5] = test system: VLB, a vinblastine-resistant variant of SKOV-3; assay: standard clonogenic assay, potentiation of drug toxicity, VLB; assay type: cell-based
Procedure: as §2

[6] = test system: normal BDF1 mouse bone marrow multipotential (CFU-GEMM) progenitor cells; assay: colony formation, mouse bone marrow CFU-GEMM; assay type: cell-based; details: EPO + 50 ng/ml SLF
Procedure: as §1

[7] = test system: normal human bone marrow multipotential (CFU-GEMM) progenitor cells; assay: colony formation, human bone marrow CFU-GEMM; assay type: cell-based; details: EPO + 50 ng/ml SLF
Procedure: as §1

[8] = test system: HT4-1, a subclone of HT-29; assay: standard clonogenic assay, potentiation of drug toxicity, HT4-1
Procedure: Four chemotherapeutic drugs, chlorambucil, adriamycin, mitomycin C and doxorubicin were used as the toxic agents. In these assays, the cells were seeded at 300 cells/well in 2 ml of medium in 6-well plates in the presence of the compounds used in the invention as the diethyl esters. […] After incubation for 1-2 hours to permit cells to attach, varying doses of the chemotherapeutic agents were added. At least three replicate wells were plated for each test condition and the plates were incubated for two weeks. […] IC50 values were determined for the chemotherapeutic agent in the presence or absence of the compound used in the invention and dose modification factors were calculated by dividing the IC50 value of drug without the compound by the IC50 value of the drug with the compound.

[9] = test system: HT-29 (human colon adenocarcinoma) cells; assay: modified clonogenic assay, potentiation of chlorambucil cytotoxicity; assay type: cell-based; details: chlorambucil, mean ±S.D. of 2-3 experiments; for DMF (dose modification factor), Diethyl ester: HT-29, dose tested 12.5 µM
Procedure: HT-29 (human colon adenocarcinoma) cells were obtained from Dr. Roberto Ceriani (Cancer Research Fund of Contra Costa County, Walnut Creek, CA) and were used in log phase of growth unless otherwise specified. Chlorambucil (CMB) was obtained from Sigma (St. Louis, MO) and was dissolved in 100% ethanol. All GST inhibitors were dissolved in ethanol, DMSO, or water just prior to use. The same amount of solvent added to culture medium served as the vehicle control.
In a modified clonogenic assay for cytotoxicity, cells were suspended at 2 x 10^5 cells/ml in serum-free medium in the presence of vehicle or inhibitor. […] Cells were incubated for 2 hours, then varying doses of CMB were added. At the end of a second 2-hour incubation, cells were diluted to 7.5-10 x 10^3/ml in serum-containing medium and plated in quadruplicate at 200 µl/well in Microtest III microtiter plates.
Plates were incubated for 6 days and assayed by a modified methylene blue method. Briefly, cells were fixed with 1.25% glutaraldehyde in PBS then stained with 0.05% methylene blue in distilled water. Plates were washed several times in distilled water to remove unretained dye and retained dye was resolubilized in 0.03 N HCl. Plates were read at 650 nm in a Molecular Devices Vmax plate reader (Molecular Devices, Redwood City, CA). […] A dose modification factor (DMF), a measure of potentiation of cytotoxicity, was calculated for each inhibitor by dividing the IC50 value of CMB without inhibitor treatment by the IC50 value for CMB with inhibitor treatment.

[10] = EPO + 50 ng/ml SLF, TER199 1.0 µM
[11] = EPO + 50 ng/ml SLF, TER199 10 µM
[12] = HT4-1, TER199 at 25 µM, TER183 dose not given

CCOC(=O)[C@@H](N)CCC(=O)N[C@@H](CSCc1ccccc1)C(=O)N[C@@H](C(=O)OCC)c1ccccc1 [TER199, γE ethyl ester-C(Bz)-R-(-)-ϕG ethyl ester]
carboplatin-induced GM-CFU suppression (Figure 12, panel A) (bone marrow GM-CFU [1]): reduces carboplatin-induced GM-CFU suppression | Colony number ([2]; EPO 1 U/ml, TER199 0.1 µM): 35±3 and 38±3 | Colony number ([2]; EPO 1 U/ml, TER199 1.0 µM): 60±2 and 58±1 | Colony number ([2]; EPO 1 U/ml, TER199 10 µM): 57±4 and 59±2 | Colony number ([2]; EPO + 50 ng/ml SLF, TER199 0.1 µM): 92±4 and 80±5 | % change from control [2, 10]: 22% and 35% | Colony number [2, 10]: 107±7 and 80±3 | % change from control [2, 11]: 24% and 29% | Colony number [2, 11]: 109±2 and 85±3 | IL-1 concentration (interleukin-1 (IL-1); 24 Hours): 323 pg/mL | IL-1 concentration (% control) (interleukin-1 (IL-1); 24 Hours): 283 % control | IL-1 concentration (interleukin-1 (IL-1); 48 Hours): 245 pg/mL | IL-1 concentration (% control) (interleukin-1 (IL-1); 48 Hours): 253 % control | DMF for Adriamycin [3]: 1.14 | DMF for Chlorambucil [3]: 1.24 | DMF for Doxorubicin [3]: 1.14 | deleterious effects on the animals (peripheral blood cells): did not appear to have any deleterious effects | levels of circulating white blood cells (peripheral blood cells): twofold increase | red blood cell or platelet counts (peripheral blood cells; exception: mean decrease in platelet count on day 9): no significant change | GM-CFU (bone marrow GM-CFU [4]): 8 % of control value | DMF for Mitomycin C ([5]; 5 µM TER199): 0.82 (5 µM TER199)^c | DMF for Doxorubicin ([5]; TER199 at 25 µM): 2.50 | DMF for Adriamycin ([5]; TER199 at 25 µM, TER183 dose not given): 2.50 | % change from control ([6]; TER199 0.1 µM): 0% | Colony number ([6]; TER199 0.1 µM): 2±1 | % change from control ([6]; TER199 10 µM): 0% | Colony number ([6]; TER199 10 µM): 2±1 | Colony number ([7]; TER199 0.1 µM): 12±1 and 19±2 | Colony number ([7]; TER199 1.0 µM): 17±2 and 23±2 | % change from control ([7]; TER199 10 µM): 60% and 36% | Colony number ([7]; TER199 10 µM): 16±1 and 30±1 | survival of tumor cells treated with varying dosages of chlorambucil (Figure 1a) ([8]; 25 µM compound added to chlorambucil): survival rate is markedly diminished | DMF for Doxorubicin ([8]; HT4-1, TER199 at 25 µM): 1.20 | DMF for Adriamycin [8, 12]: 1.2 | DMF for Chlorambucil [8, 12]: 2.39 | DMF for Mitomycin C [8, 12]: 1.03 | survival of HT4-1 cells in the presence of the compound alone (Figure 1b) ([8]; HT4-1 cells): clearly toxic | DMF (dose modification factor), Diethyl ester [9]: 1.65 | DMF (dose modification factor), Diethyl ester ([9]; listed as γE-C(Bz)-ϕG diethyl ester): 1.65 ± 0.04 | DMF of DEE ([9]; diethyl ester): 1.651

Source: patent EP0831877B1, “METABOLIC EFFECTS OF CERTAIN GLUTATHIONE ANALOGS” (TELIK, INC., priority 1995, dated 1996)
